Test results taken from patent publication US8821568B2, “Implant modified with non-hydroxylated vitamin D precursors” (Numat Biomedical S.L., priority 2008, dated 2014).

What was measured:
MC3T3-E1 cells = assay: Real-time RT-PCR of hydroxylase enzymes (CYP27A1, CYP27B1), coated titanium implants; format: cell-based, mouse; settings: Ti implants, 48 h
Experimental: To test the effect of the surface modification, 96-well plates were used. Ti disks were placed into the wells and treatments and UV-activation were performed over there. Cells grown onto untreated polystyrene tissue culture plastic (TCP) were added as a control for all the experiments. Cells were seeded at a density of 30,000 cells/cm^2 and they were maintained in α-MEM supplemented with 10% FCS and antibiotics. Culture media was collected after 48 hours, to test cytotoxicity and the production of the hydroxylated form of vitamin D, 25-D3. […]
RNA was isolated from cells using a monophasic solution of phenol and guanidine thiocyanate (Trizol, Roche Diagnostics, Mannheim, Germany) according to the manufacturer's protocol. RNA was quantified at 260 nm using a Nanodrop spectrophotometer (NanoDrop Technologies, Wilmington, Del., USA). […]
To allow relative quantification after PCR, real-time efficiencies were calculated from the given slopes in the LightCycler 480 software (Roche Diagnostics, Mannheim, Germany) using serial dilutions. Relative quantification after PCR was calculated by normalizing target gene concentration in each sample by the concentration mean of the two reference genes in given sample using the Advanced relative quantification method provided by the LightCycler 480 analysis software.

[1] = HPLC quantification of 7-DHC and vitamin D3 on coated substrates before and after UV irradiation; format: physicochemical; settings: for m7-DHC (%): 100* m7-DHC/m7-DHC^0; for ηD3 (Vit D3 product yield): moles D3 after vs moles 7-DHC before irradiation
Experimental: Substrates (polystyrene, 96 well plate; or titanium, polished titanium disks, 6.2 mm diameter, 2 mm height, inserted in a 96 well plate) were covered with 0.2 nmol of 7-DHC and Vitamin E (7-DHC: VitE=20:1, m:m) by dropping 10 μl of a 7-DHC/VitE solution in absolute ethanol. After leaving the solvent to evaporate for 15 min, samples were UV irradiated for 15 min at 302 nm. The amounts of 7-DHC and D3 present in the surfaces were quantified by HPLC. Results were compared with substrates without Vit E and with non-irradiated surfaces. Pure ethanol was used as control for all groups. Sunlight exposure was avoided for all surfaces.
The coating of each surface was extracted by adding 100 μl of ‘methanol/acetonitrile/tetrahydrofurane/water’ (67:16:2:15, v:v) to each well and shaking the plate for 2 min at 20 rpm. The content of three replicate wells was mixed to give a sample of ≈300 μl. An aliquot of 100 μl of the sample was injected in the HPLC system. Two replicate samples were prepared and analyzed for each group.
The analysis were carried out using a Waters liquid chromatographic system (Milford, Mass., USA), equipped with a refrigerated automatic injector WISP700 and a 600 pump system, connected to a Waters 996 photodiode array (PDA) detector. The software Empower was used for instrument control and data analysis. Detection was carried out at 282 nm.
A Nova Pak C18 column (Waters) was used to separate sample components before detection. The column temperature was set to 30° C. Two solvents, A: ‘methanol/acetonitrile/tetrahydrofurane/water (67:16:2:15, v:v), and B: ‘methanol/acetonitrile/tetrahydrofurane’ (75:20:5, v:v) were used in gradient elution mode as the mobile phase. Solvents A and B were vacuum-filtered through a Nylon membrane (0.45 μm pore diameter) and degassed before use. The mobile phase flow rate was 1 ml·min^−1. The binary gradient used was as follows: from 5% B to 90% B in three minutes, held for 9.5 min at 90% B, from 90% B to 5% B in one minute and equilibrated between injections at the initial conditions for 5 min (total run time=15 min+5 min equilibration between injections).
Quantification was performed by integration of the peak area of the corresponding analyte and interpolation of the peak area in 7-DHC or Vit D3 standard curves.

[2] = Polystyrene, irradiated, UV 302 nm 15 min
[3] = Titanium, irradiated, UV 302 nm 15 min

Question: For CC(C)CCC[C@@H](C)[C@H]1CC[C@H]2C3=CC=C4C[C@@H](O)CC[C@]4(C)[C@H]3CC[C@]12C [7-DHC, 7-dehydrocholesterol], which CYP27B1 gene expression (MC3T3-E1 cells; increasing UV exposure time, significant vs UV-untreated at 15 and 30 min) is on record?
Answer: Its CYP27B1 gene expression is “upregulated”.

Question: What about the “CYP27A1 mRNA gene expression” value (MC3T3-E1 cells; with UV irradiation time, maximum after 15 min) of the same compound?
Answer: Its value is “trend to increase”.

Question: And the m7-DHC [1, 2]?
Answer: Its m7-DHC is 29.2 ± 2.0 ng/well.

Question: What about the mD3 [1, 2] of the same compound?
Answer: Its mD3 is 11.8 ± 0.4 ng/well.

Question: And the “m7-DHC (%)” value [1, 2]?
Answer: Its value is 29%.

Question: And the “ηD3 (Vit D3 product yield)” value [1, 2]?
Answer: Its value is 13.1 ± 0.4%.

Question: And the m7-DHC ([1]; Polystyrene, non irradiated)?
Answer: The m7-DHC was 90.1 ± 2.9 ng/well.

Question: What about the “m7-DHC (%)” value ([1]; Polystyrene, non irradiated) of the same compound?
Answer: Its value is 88%.

Question: What about the m7-DHC [1, 3] of the same compound?
Answer: Its m7-DHC is 42.1 ± 3.4 ng/well.

Question: And the mD3 [1, 3]?
Answer: Its mD3 is 16.4 ± 0.7 ng/well.

Question: And the “m7-DHC (%)” value [1, 3]?
Answer: The value was 39%.

Question: What about the “ηD3 (Vit D3 product yield)” value [1, 3] of the same compound?
Answer: The value was 16.4 ± 0.7%.

Question: What about the m7-DHC ([1]; Titanium, non irradiated) of the same compound?
Answer: Its m7-DHC is 99.9 ± 3.0 ng/well.

Question: And the “m7-DHC (%)” value ([1]; Titanium, non irradiated)?
Answer: The value was 92%.
